The subject of one data set is Cycad Asian Scale. Kind of data set: Killing of scale insects / exterminating Cycad Asian Scale populations (general statements). As to conditions: in vivo.
For data set [1] the following is noted: can be used outdoors as well as indoors; cited from earlier work.

Consider `CCOC(=O)CC(SP(=S)(OC)OC)C(=O)OCC` (centres unmarked) [Malathion, malathion], for which the “usefulness in exterminating Cycad Asian Scale populations” value with Cycad Asian Scale is recorded as “particularly useful”.
Regarding `CC(COc1ccc(Oc2ccccc2)cc1)Oc1ccccn1` (centres unmarked) [Nylar], the photostability entry in data set [1] is reported as “photostable”.

Values taken from patent US20090233940A1, “Insecticide Compositions” (priority 2008, published 2009).
